# Assays:
# [1] = test system: 3T3-L1 adipocytes and J774 macrophages; assay: Macrophage clustering on adipocytes; assay type: cell-based; settings: for number of macrophages associated with adipocytes: FIG. 5A, ~100 adipocytes/condition
# Experimental: 3T3-L1 adipocytes were untreated or treated with TNF-alpha (˜25 nM) for 24 hours. One set of TNF-alpha treated adipocytes was also treated with hexapeptide-11 (0.1 mg/mL). One set of J774 macrophages was treated with hexapeptide-11 (0.1 mg/mL) for 24 hours. The macrophages were added to the adipocytes. After an 1 hour incubation, the cells were placed on ice and incubated with a fluorescently labeled Cholera toxin B subunit to label the cell surface of macrophages a fluorescent green. The cells were then fixed with 4% formaldehyde for 15 minutes and then incubated with LipidTox to label the lipid droplets within the adipocytes a fluorescent red color. Four conditions were performed: (1) J774 macrophages with untreated adipocytes; (2) J774 macrophages with TNF-alpha treated adipocytes; (3) J774 macrophages with TNF alpha treated adipocytes plus hexapeptide-11 in the 1 hour incubation of both cell types; and (4) peptide pretreated J774 macrophages with hexapeptide-11 pretreated TNF-alpha treated adipocytes incubated together in the presence of hexapeptide-11. Images taken with a 60× objective were analyzed by counting the number of macrophages associated with ˜100 adipocytes for each condition.
# Dermal Fibroblasts = assay: Gene expression in fibroblasts by quantitative-PCR; assay type: cell-based; settings: 72 hours exposure, vs untreated control
# Experimental: Gene expression in fibroblasts were measured following 72 hours of exposure to hexapeptide-11.
# Dermal Fibroblasts were plated in cell culture media and allowed to grow to approximately 85-90% confluency following manufacturer's guidelines. Cells were harvested and plated at 10,000 cells per cm^2 in 6-well dishes cultured for 3 days. On the third day, confluency was estimated by microscopy and the cell culture media was replaced. The cells were treated with hexpapeptide-11 at a 100× concentration or control buffer without peptide. The time at initial exposure to the peptide is considered time, t=0. Treated and untreated control cells were harvested, counted and extracted for RNA at 24 hours, 48 hours, and 72 hours following t=0. Cell pellets and isolated RNA were stored at −80° C. until analysis by quantitative-PCR.
# The 72-hour time point RNA samples (treated and untreated) were used for gene expression analysis. RNA was converted to first strand cDNA and analyzed by quantitative-PCR.
# hyaluronic acid = settings: ex vivo human skin model; cited from earlier work
compound,measurement,setting,value
Phe-Val-Ala-Pro-Phe-Pro (FVAPFP) [hexapeptide-11],macrophage clustering,"[1]; 0.1 mg/mL, TNF-alpha treated adipocytes",increase macrophage clustering
same,number of macrophages associated with adipocytes,[1],increased
same,adipocyte droplet breakdown,"[1]; TNF-alpha and peptide treatments, FIG. 4 right panel",further adipocyte droplet breakdown
same,Fold Change AMBRA1,Dermal Fibroblasts,3.59 fold
same,Fold Change ATG4A,Dermal Fibroblasts,3.29 fold
same,Fold Change ATG5,Dermal Fibroblasts,2.00 fold
same,Fold Change CASP3,Dermal Fibroblasts,2.24 fold
same,Fold Change COL5A2,Dermal Fibroblasts,−65.65 fold
same,Fold Change IGF1,Dermal Fibroblasts,−901.80 fold
same,Fold Change MAPK14,Dermal Fibroblasts,−83.67 fold
same,Fold Change PDGFRA,Dermal Fibroblasts,−369.65 fold
same,Fold Change PSMB5,Dermal Fibroblasts,2.56 fold
same,Fold Change SOD3,Dermal Fibroblasts,−101.59 fold
same,Fold Change TNF,Dermal Fibroblasts,−92.41 fold
TNF-alpha [reference compound],number of macrophages associated with adipocytes,[1],greatly increased
CCCCCCCC(=O)CCc1ccc(O)c(OC)c1 [hydroxymethoxyphenyl decanone],stimulation of dermal hyaluronic acid level versus placebo,hyaluronic acid,259%
same,stimulation of epidermal hyaluronic acid level versus placebo,hyaluronic acid,198%
